The record followed here is patent publication US12544372B2, “Methods of treating rheumatoid arthritis, chronic spontaneous urticaria, and systemic lupus erythematosis using an inhibitor of Bruton's tyrosine kinase” (Genentech, Inc., priority 2019, dated 2026).

For experiment [1], the system named is Rheumatoid factor (RF) IgM autoantibody. Description: RA study biomarker: rheumatoid factor IgM autoantibody. It counts as in vivo, human. To be noted: for Rheumatoid factor (RF) IgM autoantibody levels: by Week 12 (92% placebo). Here is the method: Biomarkers were evaluated in serum or plasma samples at baseline and weeks 1, 4, and 12 in patients with available samples (cohort 1: n=438; cohort 2: n=86). The biomarkers evaluated in this assessment were chemokine [C-C motif] ligand 4 (CCL4), IL-6, and TNF-like cytokine 1A (TL1A). Total IgM, IgG, rheumatoid factor IgM autoantibody (RF), CCL4, TL1A, IL-6, and anti-CCP autoantibody (ACPA IgG) levels were analyzed with immunoassays. CD19^+ B cells and CD3^+ T cells were measured by flow cytometry. The proportion of patients achieving an ACR50 response at week 12 and the change in DAS28 score by week 12 were assessed relative to seropositivity (RF and/or ACPA positive at baseline) or baseline levels of RF in both cohorts. To select which biomarkers to evaluate in this trial, BTK-dependent myeloid biomarkers were identified using peripheral blood CD14^+ monocytes stimulated with immune-complexes in the presence or absence of a BTK inhibitor. In brief, the expression levels of genes in human monocytes were assayed under conditions of no stimulation; with human serum albumin immune complex stimulation; with stimulation and a low concentration of a BTK inhibitor with similar characteristics to fenebrutinib; or with stimulation and a high concentration of the BTK inhibitor. […] Genes annotated with cytokine activity were selected. The color bar represents normalized gene expression.

The next experiment relates to CD19+ B cells. Description: SLE study biomarker: CD19+ B cells. The class given is in vivo, human. Here is the method:
The following biomarkers were explored according to the biomarker objectives provided above in the Study Objectives. In Table 13, biomarkers are measured at baseline and subsequent timepoints during and after treatment. One set of biomarkers evaluated is the plasmablast signature. Plasmablasts are rapidly dividing, short-lived antibody secreting cells. While they represent a small proportion of B cells in the blood, they are responsible for a majority of antibody transcripts found in whole blood mRNA. The plasmablast signature comprises the biomarkers IgJ, Mzbl, and Txndc5. The gene expression of IgJ, Mzbl, and Txndc5 may be measured, for example, a polypeptide expression by evaluating the level of mRNA for said gene in a patient's blood relative to a reference level.

Marks after values point to notes of the source that are not given here.

In the case of `C[C@H]1CN(C2COC2)CCN1c1ccc(Nc2cc(-c3ccnc(N4CCn5c(cc6c5CC(C)(C)C6)C4=O)c3CO)cn(C)c2=O)nc1` [fenebrutinib, (S)-2-(3′-(hydroxymethyl)-1-methyl-5-((5-(2-methyl-4-(oxetan-3-yl)piperazin-1-yl)pyridin-2-yl)amino)-6-oxo-1,6-dihydro-[3,4′-bipyridin]-2′-yl)-7,7-dimethyl-2,3,4,6,7,8-hexahydro-1H-cyclopenta[4,5]pyrrolo[1,2-a]pyrazin-1-one], the “Rheumatoid factor (RF) IgM autoantibody levels” value in experiment [1] (150 mg QD arm) is reported as 66%; in experiment [1] (200 mg BID arm) it was 64%. For the same compound, the “RF IgM median reduction relative to placebo” value in experiment [1] (cohort 1, 200 mg twice daily, by week 12) was −29%. Further, the “CD19+ B cells, Median Change from Baseline at Week 48” value is on record as −57.0* cells/μl in the experiment on CD19+ B cells (150 mg QD) and −57.5* cells/μl with CD19+ B cells (200 mg BID).
